From US8530454B2, “Use of 2,5-dihydroxybenzene compounds and derivatives for the treatment of psoriasis” (Amderma Pharmaceuticals, LLC, priority 2006, dated 2013)

Tests used:
rat glioma C6 cells = experiment: Rat glioma C6 cell proliferation, crystal violet staining; type: cell-based; details: 48 h; for C6 cell proliferation (percentage of control absorbance at 595 nm): 500 μM, p<0.001 vs control (FIG. 12)
Description: The cell line used was rat glioma C6 cells. The cells were cultured as previously described (Cuevas P et al. Neurol Res, 2005). The cells were cultured as adherent cells in Dulbecco's modified Eagle's medium, supplemented with 7.5% (v/v) of fetal bovine serum, 10 μg/ml of streptomycin and 10 units/ml of penicillin. The tumor cells were seeded in 24-well plates at a density of 10,000 cells/well, and were incubated at 37° C. in a humidified chamber with 5% CO2. Once adhered, the cells were treated or not (controls) with 2,5-dihydroxybenzoate at 100, 200, 500 or 1000 μM and they were allowed to proliferate for 48 h. After this time the glioma cell proliferation was evaluated by means of staining the fixed cells with crystal violet. The number of cells is proportional to the amount of retained dye, which was spectrophotometrically determined by measuring the absorbance at 595 nm once the dye was extracted from the cells.
(§1) The cell line used was the C6 cell line and the experiment was carried out as described in Example 2. Once adhered, the cells were treated or not (controls) with increasing concentrations of 2,5-DHC (10, 25, 50 and 100 μM) and they were allowed to proliferate for 48 h. After this time the glioma cell proliferation was evaluated by means of staining the fixed cells with crystal violet. The number of cells is proportional to the amount of retained dye, which was determined spectrophotometrically by measuring absorbance at 595 nm once the dye was extracted from the cells.
as §1, with “examples 2 and 3.” for “Example 2.”, “(5A-2HBS) (500 μM) or (2A-5HBS) (500” for “increasing concentrations of 2,5-DHC (10, 25, 50 and 100”, “measuring the” for “measuring”

[1] = tested on: bFGF-induced fibrosis in rat adipose tissue; experiment: bFGF-induced fibrosis around subcutaneously implanted gelatin sponges; type: in vivo, Sprague-Dawley rats; details: 100 μM in sponge with bFGF and heparin, 7 days, vs bFGF alone
Description: Sterile gelatin sponges (1 mm^3; Curaspon Dental, Clinimed Holding, Zwanenburg, The Netherlands) were subcutaneously implanted in the dorsal region of the neck in Sprague-Dawley rats after the induction of intraperitoneal anesthesia. The animals were split into two groups: group A, the sponges were moistened with 200 μl of saline solution which contained 25 μg/ml of heparin and 10 μg/ml of basic FGF (bFGF); group B, the sponges were moistened in the same solution as in group A, but which solution farther contained 2,5-dihydroxybenzoate (100 μM). After 7 days, the sponges and the surrounding subcutaneous fat were removed and histologically analyzed.

[2] = molecular target: fibroblast growth factor-1 (FGF-1) (Homo sapiens, UniProt P05230); experiment: Crystal diffraction of co-crystal complexes with FGF-1; type: binding; details: electron density contoured at 1σ; for acetoxyl groups retained when bound to FGF-1: co-crystal; for binding site on FGF-1 in the co-crystal: reference lysine 132
Description: Based on the crystal diffraction of the FGF-1:2-acetoxy-5-hydroxybenzene sulfonic acid, FGF-1:5-acetoxy-2-hydroxybenzene sulfonic acid and FGF-1:2,5-diacetoxybenzene sulfonic acid complexes, the structures of the complexes were calculated and represented. FIGS. 13, 14 and 15, which show the surface of the dyed protein according to its electrostatic potential (light grey, negative charge; dark grey, positive charge; white, regions with no charge), show the manner in which 2-acetoxy-5-hydroxybenzene sulfonic acid, 5-acetoxy-2-hydroxybenzene sulfonic acid and 2,5-diacetoxybenzene sulfonic acid interact, respectively, with FGF-1.

[3] = tested on: mitogenesis induced by fibroblast growth factor-1 (FGF-1) in Balb/c 3T3 fibroblasts; experiment: Inhibition of FGF-1-induced mitogenesis in quiescent Balb/c 3T3 fibroblasts; type: cell-based; details: quiescent Balb/c 3T3 cultures; potassium salts, calcium salt for 2-acetoxy-5-hydroxybenzene sulfonate
Description: The evaluated compounds were used in the form of potassium salt, except in the first case which used calcium salt. The experiments were carried out as described in Fernández-Tornero C et al. J Biol Chem, 2003.

[4] = tested on: tumor cells of subcutaneous gliomas; experiment: Apoptosis in sections of established subcutaneous gliomas (hematoxylin and eosin); type: in vivo, rat; details: 100 mg/kg/day i.p. for 10 days, vs carrier (very scarce)
From the text: Tumor cells elude the programmed cell death process or apoptosis that normal cells experience. Apoptosis induction in tumor cells is one way to confront the development of a tumor. To evaluate the effect of potassium 2,5-dihydroxybenzene sulfonate […] on tumor cell apoptosis, 6 μm thick sections of the subcutaneous gliomas described in example 4 were made. The sections were stained with hematoxylin and eosin and observed at a magnification of 313 times using immersion oil. In these conditions, cell apoptosis is shown by the existence of apoptotic bodies appearing as strongly chromogenic granules in the cell nucleus which is frequently fragmented.

[5] = tested on: human lung cancer A549 cells; experiment: Human tumor cell proliferation (XTT), A549; type: cell-based; details: 1-200 μM, 96 h
Description: (§2) The cell lines used were the human prostate cancer PC-3 cells and human lung cancer A549 cells. 2000 cells were seeded per well in 96-well plates and they were allowed to adhere overnight. Then the cells were treated or not (controls) with potassium 2,5-diacetoxybenzene sulfonate (DABS) (1-200 μM) and they were allowed to proliferate for 96 h. After this time, the PC-3 and A549 cell proliferation was evaluated by determining the final number of cells by means of the viability method of yellow tetrazolium salt (XTT). The data were expressed as a percentage of the control (without treatment).

[6] = tested on: human prostate cancer PC-3 cells; experiment: Human tumor cell proliferation (XTT), PC-3; type: cell-based; details: 1-200 μM, 96 h
Description: as §2

[7] = tested on: subcutaneous tumors from human prostate cancer PC-3 cells; experiment: Subcutaneous PC-3 prostate cancer cell implantation model in athymic mice; type: in vivo, athymic mice (Nu/Nu); details: 100 mg/kg daily i.p. for 15 days, vs carrier
Description: 5×10^6 human prostate cancer PC-3 cells were subcutaneously injected in male athymic mice (Nu/Nu) of 6-8 weeks of age and weighing 20-26 g. Ten days after the implantation of the tumor cells, the mice were randomly split into two groups: one of them received a daily injection of potassium 2,5-diacetoxybenzene sulfonate (DABS) by intraperitoneal route at a dose of 100 mg/kg dissolved in saline (0.9% NaCl) whereas the other group received a daily injection of carrier (saline). The treatments were administered for 15 days. The volumes of the tumors induced by the implantation of PC-3 cells were measured through the skin on alternating days using a Vernier caliper. The volume was calculated using the formula V=(D×2d)/2, where D is the larger diameter in mm, d is the smaller diameter in mm and V is the volume in mm3. At the end of treatment, the mice were sacrificed and the tumors were weighed.

[8] = tested on: subcutaneous gliomas from implanted rat glioma C6 cells; experiment: Progression of established subcutaneous C6 gliomas in rats; type: in vivo; details: 100 mg/kg/day i.p. for 10 days
Description: Rat C6 glioma cells were cultured as previously described (Cuevas P et al. Neurol Res, 2005). The C6 cells cultured to confluence in 75 cm^2 flasks were removed and implanted under the abdominal skin in anesthetized rats. The existence of a tumor in the implantation area was observed five days after the implantation of the tumor cells. Only the rats in which the existence of a tumor was observed were randomly assigned to be treated with daily intraperitoneal injections of 2,5-dihydroxybenzene sulfonate (DHBS; 100 mg/kg/day), 2,5-diacetoxybenzene sulfonate (DABS; 100 mg/kg/day) or the carrier (0.9% NaCl). After 10 days of treatment, the subcutaneous gliomas were removed and their volume was calculated according to the formula V=4/3π·(L/2)·(A/2)^2 (in mm^3) where L is the larger diameter and A is the smaller diameter, both expressed in mm.

Chain of fibroblast growth factor-1 (FGF-1) (P05230 whole entry, species assumed): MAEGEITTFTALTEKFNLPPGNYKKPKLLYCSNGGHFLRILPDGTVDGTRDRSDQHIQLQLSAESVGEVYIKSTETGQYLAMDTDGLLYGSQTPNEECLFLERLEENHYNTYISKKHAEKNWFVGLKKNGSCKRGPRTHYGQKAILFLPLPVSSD

SMILES: O=C(O)C=Cc1cc(O)ccc1O [2,5-DHC, 3-(2,5-dihydroxyphenyl)-2-propenoic acid]
- C6 cell proliferation relative to control (rat glioma C6 cells; 50 μM): less than half
- C6 cell proliferation relative to control (rat glioma C6 cells; 100 μM): one tenth

SMILES: O=C([O-])c1cc(O)ccc1O.[K+] [2,5-dihydroxybenzoate, potassium 2,5-dihydroxybenzoate]
- C6 cell proliferation (absorbance at 595 nm) (rat glioma C6 cells; 100, 200, 500 and 1000 μM): inhibited rat glioma C6 cell proliferation in a concentration-dependent manner
- statistical significance of inhibition of C6 cell proliferation vs control (rat glioma C6 cells; 500 and 1000 μM, p<0.001 (FIG. 2)): statistically significant
- bFGF-induced fibrosis (fibroblasts in septa of connective tissue of adipose tissue) [1]: reduces bFGF-induced fibrosis

SMILES: CC(=O)Oc1ccc(O)cc1S(=O)(=O)[O-].[K+] [2A-5HBS, potassium 2-acetoxy-5-hydroxybenzene sulfonate]
- acetoxyl groups retained when bound to FGF-1 [2]: conserve the acetoxyl groups
- binding site on FGF-1 in the co-crystal [2]: occupy a site that is very close to the one that has been described occupied by 2,5-dihydroxybenzene sulfonic acid
- C6 cell proliferation (percentage of control absorbance at 595 nm) (rat glioma C6 cells): caused the inhibition of rat glioma cell proliferation
- inhibition of mitogenesis induced by FGF-1 [3]: inhibition of mitogenesis induced by FGF-1

SMILES: CC(=O)Oc1ccc(O)c(S(=O)(=O)[O-])c1.[K+] [5A-2HBS, potassium 5-acetoxy-2-hydroxybenzene sulfonate]
- acetoxyl groups retained when bound to FGF-1 [2]: conserve the acetoxyl groups
- binding site on FGF-1 in the co-crystal [2]: occupy a site that is very close to the one that has been described occupied by 2,5-dihydroxybenzene sulfonic acid
- C6 cell proliferation (percentage of control absorbance at 595 nm) (rat glioma C6 cells): caused the inhibition of rat glioma cell proliferation
- inhibition of mitogenesis induced by FGF-1 [3]: inhibition of mitogenesis induced by FGF-1

SMILES: CC(=O)Oc1ccc(OC(C)=O)c(S(=O)(=O)[O-])c1.[K+] [DABS, potassium 2,5-diacetoxybenzene sulfonate]
- acetoxyl groups retained when bound to FGF-1 [2]: conserve the acetoxyl groups
- binding site on FGF-1 in the co-crystal [2]: occupy a site that is very close to the one that has been described occupied by 2,5-dihydroxybenzene sulfonic acid
- tumor cells in apoptosis in glioma sections [4]: a large number of tumor cells in apoptosis
- A549 cell proliferation (percentage of control) [5]: significant inhibition
- PC-3 cell proliferation (percentage of control) [6]: significant inhibition
- tumor growth (tumor volume through the skin) ([7]; start 10 days after implantation): significantly reduced
- weight of the extracted tumor when treatment ended ([7]; p<0.05): significant reduction of the weight
- inhibition of mitogenesis induced by FGF-1 [3]: inhibition of mitogenesis induced by FGF-1
- rats tumor-free when treatment ended ([8]; all rats had established tumors before treatment): 4 rats
- probability of being tumor-free (χ2 test), DABS group vs DHBS group ([8]; p<0.05): greater probability of being tumor-free

SMILES: O=S(=O)([O-])c1cc(O)ccc1O.[K+] [DHBS, potassium 2,5-dihydroxybenzene sulfonate, reference compound]
- inhibition of mitogenesis induced by FGF-1 [3]: inhibition of the mitogenesis
- average size (volume) of subcutaneous gliomas ([8]; treatment from day 5 after implantation, vs carrier): less than that of the rats treated with carrier
